Test results reported in US20240400584A1, “COMPOUNDS AND METHODS FOR MODULATING SPLICING” (REMIX THERAPEUTICS INC., priority 2021, published 2024).

What was measured:
HTT [1] = assay: RT-qPCR splicing assay, HTT AJ/CJ mRNA; type: cell-based, human; conditions: Homo sapiens, A673 or K562 cells; for IC50: decrease in canonical junction mRNA; for AC50: increase in alternative junction mRNA
Summary of the method: (§1)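 Cells: A673 (DMEM/10% FBS) or K562 (IMDM/10% FBS). Dosing: 11-pt 3-fold, top 10 uM final, DMSO ≤0.25%, 24 h, 37° C. Readout: one-step RT-qPCR on lysate, CJ vs AJ isoforms; ΔCt vs housekeeper, ΔΔCt vs DMSO, 2^(−ΔΔCt) RQ → % response.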

MYB [2] = assay: RT-qPCR splicing assay, MYB AJ/CJ mRNA; type: cell-based; conditions: Homo sapiens, A673 or K562 cells, 24 hours; for IC50: decrease in canonical junction mRNA; for AC50: increase in alternative junction mRNA
Summary of the method: as §1

HTT [3] = assay: Gene panel canonical junction qPCR assay, HTT CJ mRNA (Table 7); type: cell-based, human; conditions: Homo sapiens, read-out: HTT CJ mRNA decrease IC50
Summary of the method: (§2)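 A673 or K562 cells treated with compound; canonical exon-junction mRNA measured by RT-qPCR with junction-spanning primers/probe, normalised to GAPDH, GUSB or PPIA and DMSO (ΔΔCt, RQ). Percentage response set from fixed ΔCt assay windows, fitted to a 4-parameter logistic; IC50 is concentration giving 50% CJ decrease.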

SMN2 = assay: Gene panel canonical junction qPCR assay, SMN2 CJ mRNA (Table 7); type: cell-based; conditions: Homo sapiens, read-out: SMN2 CJ mRNA decrease IC50
Summary of the method: as §2

MYB [4] = assay: Gene panel canonical junction qPCR assay, MYB CJ mRNA (Table 7); type: cell-based; conditions: Homo sapiens, read-out: MYB CJ mRNA decrease IC50
Summary of the method: as §2

Target C = assay: Gene panel canonical junction qPCR assay, Target C CJ mRNA (Table 7); type: cell-based, human; conditions: Homo sapiens, read-out: Target C CJ mRNA decrease IC50
Summary of the method: as §2

Row | SMILES | IC50 (HTT [1]; 24 h) | AC50 (HTT [1]; 24 h) | IC50 (MYB [2]) | AC50 (MYB [2]) | IC50 (HTT [3]) | IC50 (SMN2) | IC50 (MYB [4]) | IC50 (Target C) | IC50 (HTT [1]; 24 hours) | AC50 (HTT [1]; 24 hours)
1 | c1cnn(-c2ccc3c(c2)COc2nc(N(C4CCNCC4)C4CC4)ccc2-3)c1 [Compound 202] | 1000 to 10000 nM | > 10000 nM | 1000 to 10000 nM | > 10000 nM | 1000 to 10000 nM | > 10000 nM | 1000 to 10000 nM | > 10000 nM | – | –
2 | CC1(C)CC(N(c2ccc3c(n2)OCc2cc(-n4cccn4)ccc2-3)C2CC2)CC(C)(C)N1 [Compound 204] | 1000 to 10000 nM | > 10000 nM | 1000 to 10000 nM | > 10000 nM | 1000 to 10000 nM | 1000 to 10000 nM | 1000 to 10000 nM | > 10000 nM | – | –
3 | c1cc2c(cc1-c1cn[nH]c1)COc1nc(N3CCC4(CCN4)C3)ccc1-2 (stereo not drawn) [Compound 217, 6-[8-(1H-pyrazol-4-yl)-6H-isochromeno[3,4-b]pyridin-3-yl]-1,6-diazaspiro[3.4]octane] | 100 to 1000 nM | 1000 to 10000 nM | 1000 to 10000 nM | > 10000 nM | 100 to 1000 nM | 100 to 1000 nM | 1000 to 10000 nM | 1000 to 10000 nM | – | –
4 | CC1(C)CC(Oc2ccc3c(n2)OCc2cc(-c4cn[nH]c4)ccc2-3)CC(C)(C)N1 [Compound 219, 8-(1H-pyrazol-4-yl)-3-((2,2,6,6-tetramethylpiperidin-4-yl)oxy)-6H-isochromeno [3,4-b] pyridine] | 100 to 1000 nM | 100 to 1000 nM | 100 to 1000 nM | > 10000 nM | 100 to 1000 nM | 100 to 1000 nM | 100 to 1000 nM | 100 to 1000 nM | – | –
5 | CN1CCC12CCN(c1ccc3c(n1)OCc1cc(-c4cn[nH]c4)ccc1-3)C2 (stereo not drawn) [Compound 220, 3-(1-methyl-1,6-diazaspiro[3.4]octan-6-yl)-8-(1H-pyrazol-4-yl)-6H-isochromeno[3,4-b]pyridine] | 100 to 1000 nM | 100 to 1000 nM | 100 to 1000 nM | 100 to 1000 nM | 100 to 1000 nM | 100 to 1000 nM | 100 to 1000 nM | 1000 to 10000 nM | – | –
6 | c1cc2c(cc1-c1cn[nH]c1)COc1nc(N3CCC34CCNCC4)ccc1-2 [Compound 221, 1-[8-(1H-pyrazol-4-yl)-6H-isochromeno[3,4-b]pyridin-3-yl]-1,7-diazaspiro[3.5]nonane 2,2,2-trifluoroacetate] | > 10000 nM | > 10000 nM | 1000 to 10000 nM | > 10000 nM | > 10000 nM | > 10000 nM | 1000 to 10000 nM | > 10000 nM | – | –
7 | CN1CCCC2(CCN2c2ccc3c(n2)OCc2cc(-c4cn[nH]c4)ccc2-3)C1 (stereo not drawn) [Compound 222, 6-methyl-1-[8-(1H-pyrazol-4-yl)-6H-isochromeno[3,4-b]pyridin-3-yl]-1,6-diazaspiro[3.5]nonane] | > 10000 nM | > 10000 nM | > 10000 nM | > 10000 nM | > 10000 nM | > 10000 nM | > 10000 nM | > 10000 nM | – | –
8 | COc1cc(-c2ccc3c(c2)COc2nc(O[C@@H]4C[C@H]5CC[C@@H](C4)N5)ccc2-3)cnn1 [Compound 223, (1R,3R,5S)-3-{[8-(6-methoxypyridazin-4-yl)-6H-isochromeno[3,4-b]pyridin-3-yl]oxy}-8-azabicyclo[3.2.1]octane] | < 100 nM | < 100 nM | 100 to 1000 nM | < 100 nM | < 100 nM | < 100 nM | 100 to 1000 nM | < 100 nM | – | –
9 | FC1(F)CC2CC(Oc3ccc4c(n3)OCc3cc(-c5cn[nH]c5)ccc3-4)CC1N2 (stereo not drawn) [Compound 224, 6,6-difluoro-3-{[8-(1H-pyrazol-4-yl)-6H-isochromeno[3,4-b]pyridin-3-yl]oxy}-8-azabicyclo[3.2.1]octane] | 1000 to 10000 nM | 1000 to 10000 nM | > 10000 nM | > 10000 nM | 1000 to 10000 nM | 1000 to 10000 nM | > 10000 nM | > 10000 nM | – | –
10 | COc1cc(-c2ccc3c(c2)COc2nc(OC4CC5CC(F)(F)C(C4)N5)ccc2-3)cnn1 (stereo not drawn) [Compound 225, 6,6-difluoro-3-{[8-(6-methoxypyridazin-4-yl)-6H-isochromeno[3,4-b]pyridin-3-yl]oxy}-8-azabicyclo[3.2.1]octane] | 100 to 1000 nM | 1000 to 10000 nM | > 10000 nM | > 10000 nM | 100 to 1000 nM | 1000 to 10000 nM | > 10000 nM | > 10000 nM | – | –
11 | COc1cc(-c2ccc3c(c2)COc2nc(OC4CC(C)(C)NC(C)(C)C4)ccc2-3)cnn1 [Compound 226, 3-methoxy-5-{3-[(2,2,6,6-tetramethylpiperidin-4-yl)oxy]-6H-isochromeno[3,4-b]pyridin-8-yl}pyridazine] | < 100 nM | < 100 nM | 100 to 1000 nM | > 10000 nM | < 100 nM | < 100 nM | 100 to 1000 nM | 100 to 1000 nM | – | –
12 | CN1CCC2(CC1)CCN2c1ccc2c(n1)OCc1cc(-c3cn[nH]c3)ccc1-2 [Compound 227, 7-methyl-1-[8-(1H-pyrazol-4-yl)-6H-isochromeno[3,4-b]pyridin-3-yl]-1,7-diazaspiro[3.5]nonane] | > 10000 nM | > 10000 nM | > 10000 nM | > 10000 nM | > 10000 nM | > 10000 nM | > 10000 nM | > 10000 nM | – | –
13 | C[C@]12CC[C@](C)(C[C@@H](Oc3ccc4c(n3)OCc3cc(-n5cccn5)ccc3-4)C1)N2 [Compound 228] | 100 to 1000 nM | 1000 to 10000 nM | 1000 to 10000 nM | 1000 to 10000 nM | 100 to 1000 nM | 100 to 1000 nM | 1000 to 10000 nM | 1000 to 10000 nM | – | –
14 | O=c1cc(-c2ccc3c(c2)COc2nc(OC4CC5CC(F)(F)C(C4)N5)ccc2-3)cc[nH]1 (stereo not drawn) [Compound 229] | – | – | > 10000 nM | > 10000 nM | > 10000 nM | > 10000 nM | > 10000 nM | > 10000 nM | > 10000 nM | > 10000 nM
15 | Fc1ccn(-c2ccc3c(c2)COc2nc(O[C@@H]4C[C@H]5CC[C@@H](C4)N5)ccc2-3)n1 [Compound 230, (1R,3R,5S)-3-{[8-(3-fluoropyrazol-1-yl)-6H-isochromeno[3,4-b]pyridin-3-yl]oxy}-8-azabicyclo[3.2.1]octane] | 100 to 1000 nM | 100 to 1000 nM | 100 to 1000 nM | 1000 to 10000 nM | 100 to 1000 nM | 100 to 1000 nM | 100 to 1000 nM | 1000 to 10000 nM | – | –
16 | COc1cc(-c2ccc3c(c2)COc2nc(N(C)C4CC(C)(C)NC(C)(C)C4)ccc2-3)cnn1 [Compound 231, N-[8-(6-methoxypyridazin-4-yl)-6H-isochromeno[3,4-b]pyridin-3-yl]-N,2,2,6,6-pentamethylpiperidin-4-amine] | 100 to 1000 nM | 100 to 1000 nM | 100 to 1000 nM | 1000 to 10000 nM | 100 to 1000 nM | < 100 nM | 100 to 1000 nM | 100 to 1000 nM | – | –
17 | COc1cc(-c2ccc3c(c2)COc2nc(N(C)[C@@H]4C[C@H]5COC[C@@H](C4)N5)ccc2-3)cnn1 [Compound 232, (1R,5S,7r)-N-[8-(6-methoxypyridazin-4-yl)-6H-isochromeno[3,4-b]pyridin-3-yl]-N-methyl-3-oxa-9-azabicyclo[3.3.1]nonan-7-amine] | < 100 nM | < 100 nM | 100 to 1000 nM | < 100 nM | < 100 nM | < 100 nM | 100 to 1000 nM | < 100 nM | – | –
18 | CN(c1ccc2c(n1)OCc1cc(-c3cn[nH]c3)c(F)cc1-2)C1CC(C)(C)NC(C)(C)C1 [Compound 233, 9-fluoro-N-methyl-8-(1H-pyrazol-4-yl)-N-(2,2,6,6-tetramethylpiperidin-4-yl)-6H-isochromeno[3,4-b]pyridin-3-amine] | < 100 nM | 100 to 1000 nM | 100 to 1000 nM | 1000 to 10000 nM | < 100 nM | < 100 nM | 100 to 1000 nM | 100 to 1000 nM | – | –
19 | CC1(C)CC(Oc2ccc3c(n2)OCc2cc(-c4cn[nH]c4)c(F)cc2-3)CC(C)(C)N1 [Compound 234] | < 100 nM | < 100 nM | 100 to 1000 nM | 100 to 1000 nM | < 100 nM | < 100 nM | 100 to 1000 nM | 100 to 1000 nM | – | –
20 | FC1(F)CC2CC(Oc3ccc4c(n3)OCc3cc(-n5nccn5)ccc3-4)CC1N2 (stereo not drawn) [Compound 235, 6,6-difluoro-3-{[8-(1,2,3-triazol-2-yl)-6H-isochromeno[3,4-b]pyridin-3-yl]oxy}-8-azabicyclo[3.2.1]octane] | > 10000 nM | > 10000 nM | > 10000 nM | > 10000 nM | > 10000 nM | > 10000 nM | > 10000 nM | 1000 to 10000 nM | – | –
21 | Fc1cc2c(cc1-c1cn[nH]c1)COc1nc(O[C@@H]3C[C@H]4CC(F)(F)[C@@H](C3)N4)ccc1-2 [Compound 236] | < 100 nM | < 100 nM | 100 to 1000 nM | < 100 nM | < 100 nM | < 100 nM | 100 to 1000 nM | 100 to 1000 nM | – | –
